# The source made the active and inactive calls. No rule for the calls is given here.
# Target: Botulinum neurotoxin type F (Clostridium botulinum) (UniProt P30996)
# Test: concentration-response inhibition of BoNT/F LC – biochemical, cherry pick 1 compounds, dose response (AID 602177)
# Conditions: multiplex microsphere protease cleavage assay
structure (smiles),measurement,value
Oc1[nH]c(N=C2N=c3ccccc3=N2)c2ccccc12,EC50,> 20 µM (inactive)

# — PubChem BioAssay AID602177 (NMMLSC, 2012)
